Test results taken from patent EP0825187A1, “Condensed pyridazinyl guanidines, their production and use” (TAKEDA CHEMICAL INDUSTRIES, LTD., priority 1996, dated 1998).
Where a name gives a salt, the structure may show the parent alone.

Target: T1, Na-H exchange (Rattus norvegicus, UniProt P26431)
T1 construct: The blood was centrifuged at 3000 r.p.m. for […] to obtain platelet rich plasma (PRP); from tissue; host or cells: platelets in platelet rich plasma from the blood of male Wistar rats
Experiment: Inhibition of platelet swelling (light transmittance of platelet rich plasma after sodium propionate), indicator of Na-H exchange inhibition
Format: cell-based, Wistar rats
Details: rat PRP, value one minute after sodium propionate solution (pH 6.7, 37 °C), difference between 1% DMSO and HOE-642 (10^-5 M) taken as 100
Protocol: Male Wistar rats (350-450 g) were anesthetized with sodium pentobarbital (50 mg/kg, i.p.). Using a disposable syringe pre-filled with 1.5 ml of a 3.8% citric acid solution, 8.5 ml of blood was collected from the abdominal aorta. The blood was centrifuged at 3000 r.p.m. for […] to obtain platelet rich plasma (PRP). The number of platelets in the PRP was counted by an automatic hemocytometer (Sysmex 2500, TOA Medical Electronics). The PRP was diluted with physiological saline to make the concentration of 40 x 10^4 platelets per microliter. A platelet aggregometer (Hematoracer, Niko Bioscience) was used for mesurement of the platelet swelling. 200 Microliters of the PRP was poured into a cuvette and 600 µl of a sodium propionate solution (Na propionate 135, glucose 10: HEPES 20, CaCl2 1, MgCl2 1, Units mM, pH 6.7) was added while stirring at 37 °C. The change in the light transmittance of PRP which was an indicator of the platelet swelling was recorded on a plotter. The test compound was added 3 minutes before addition of the sodium propionate solution. Test compounds were dissolved in dimethyl sulfoxide (DMSO). The final concentration of DMSO was adjusted to 1%. The values obtained one minute after addition of the sodium propionate solution were subjected to analysis. The rate of the inhibition of the test compound on the increase of the light transmittance was calculated designating the difference obtained between the treatments with 1% DMSO and HOE-642 (10^-5 M) as 100. […]

T1 sequence (P26431 whole entry): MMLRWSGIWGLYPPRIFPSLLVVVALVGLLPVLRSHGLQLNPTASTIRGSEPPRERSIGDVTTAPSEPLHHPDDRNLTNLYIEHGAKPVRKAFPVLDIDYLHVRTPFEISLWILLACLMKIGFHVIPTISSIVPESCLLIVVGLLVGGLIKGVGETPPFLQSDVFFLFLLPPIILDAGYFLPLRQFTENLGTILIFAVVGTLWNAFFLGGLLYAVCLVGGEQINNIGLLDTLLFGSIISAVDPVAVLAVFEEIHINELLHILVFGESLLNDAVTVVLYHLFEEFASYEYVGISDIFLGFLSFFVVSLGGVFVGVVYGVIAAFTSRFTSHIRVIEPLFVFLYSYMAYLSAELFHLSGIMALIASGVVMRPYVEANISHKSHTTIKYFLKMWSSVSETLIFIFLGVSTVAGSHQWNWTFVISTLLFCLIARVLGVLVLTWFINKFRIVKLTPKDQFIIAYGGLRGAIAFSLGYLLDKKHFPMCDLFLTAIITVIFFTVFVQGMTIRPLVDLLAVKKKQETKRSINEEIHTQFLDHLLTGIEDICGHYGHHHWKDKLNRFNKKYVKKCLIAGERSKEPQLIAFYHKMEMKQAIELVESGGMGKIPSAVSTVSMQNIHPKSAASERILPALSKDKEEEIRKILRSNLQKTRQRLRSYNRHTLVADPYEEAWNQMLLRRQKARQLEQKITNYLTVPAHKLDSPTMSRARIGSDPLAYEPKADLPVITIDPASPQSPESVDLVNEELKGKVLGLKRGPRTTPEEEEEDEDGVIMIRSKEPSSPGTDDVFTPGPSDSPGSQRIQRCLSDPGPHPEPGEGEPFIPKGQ

Row | Compound | Inhibitory ratio (%) (1µM) | Inhibitory ratio (%) (3µM)
1 | 8-methyl-4-(2-methylphenyl)phthalazin-1-ylguanidine [Compound 44] | 55% | 73%
2 | NC(N)=Nc1nnc(-c2ccccc2)c2cccc(I)c12 [Compound 4, 8-iodo-4-phenylphthalazin-1-ylguanidine hydrochloride] | 66% | 78%
3 | NC(N)=Nc1nnc(-c2ccccc2)c2cccc(Br)c12 [Compound 13, 8-bromo-4-phenylphthalazin-1-ylguanidine] | 60% | 99%
4 | Cc1ccccc1-c1nnc(N=C(N)N)c2c(Br)cccc12 [Compound 24, 8-bromo-4-(2-methylphenyl)phthalazin-1-ylguanidine] | 62% | 78%
5 | Cc1ccccc1-c1nnc(N=C(N)N)c2c(I)cccc12 [Compound 28, 8-iodo-4-(2-methylphenyl)phthalazin-1-ylguanidine] | 66% | 96%
6 | NC(N)=Nc1nnc(-c2ccc(F)cc2)c2cccc(I)c12 [Compound 36, 4-(4-fluorophenyl)-8-iodophthalazin-1-ylguanidine] | 58% | 78%
